{"source": "patent US7358042B2", "about": "“Triosephosphate isomerase directed diagnostics and therapeutics for multidrug resistant neoplastic disease” (priority 2003, dated 2008)", "key": {"[1]": {"test_system": "hematological tumor cells", "experiment": "Triosephosphate isomerase vaccination of mice injected with hematological tumor cells", "type": "in vivo", "details": "mice vaccinated prior to injection of the tumor cells versus not vaccinated"}, "[2]": {"test_system": "antigen-positive E3 cell line", "details": "read-out: IC50 (cytotoxicities); cited from earlier work"}, "E3 target cells": {"test_system": "E3 target cells", "details": "cited from earlier work"}}, "note": "pIC50: −log10 of the molar value."}
{"molecule": "triosephosphate isomerase: purified full length murine triosephosphate isomerase protein used as vaccine antigen, may be administered with an adjuvant", "values": [{"measurement": "tumor size", "setting": "[1]", "result": "smaller"}]}
{"molecule": "O=c1[nH]c(=O)n([C@H]2C[C@H](O)[C@@H](CO)O2)cc1F", "note": "[FUDR, 5-fluoro-2′-deoxyuridine]", "values": [{"measurement": "pIC50", "setting": "[2]", "result": 9.40}]}
{"molecule": "CC(=O)[C@]1(O)Cc2c(O)c3c(c(O)c2[C@@H](O[C@H]2C[C@H](N)[C@H](O)[C@H](C)O2)C1)C(=O)c1ccccc1C3=O", "note": "[Ida, Idarubicin]", "values": [{"measurement": "pIC50", "setting": "E3 target cells", "result": 6.92}]}
